test system: HLA-B7 supertype (B*0702, B*3501, B*5101, B*5301, B*5401); type: binding, human

Row | Sequence | # Alleles Bound
1 | APPKQSRMQF (Influenza Virus) [SEQ ID NO: 304] | 1
2 | YPKVYKTYF (Influenza Virus) [SEQ ID NO: 300] | 2
3 | FPSSSYRRPV (Influenza Virus) [SEQ ID NO: 260] | 4
4 | VPASRYLTDM (Influenza Virus) [SEQ ID NO: 147] | 2
5 | NPRMFLAMI (Influenza Virus) [SEQ ID NO: 252] | 1
6 | SPYNSRFESV (Influenza Virus) [SEQ ID NO: 104] | 3
7 | GPVHFRNQV (Influenza Virus) [SEQ ID NO: 301] | 1
8 | RPCFWVELI [SEQ ID NO: 106] | 1
9 | RPWVSFNQNL (Influenza Virus) [SEQ ID NO: 105] | 1
10 | GPALSINEL (Influenza Virus) [SEQ ID NO: 306] | 1
11 | NPALRMKWM (Influenza Virus) [SEQ ID NO: 299] | 1
12 | IPKRNRSIL [SEQ ID NO: 259] | 1
13 | GPATAQMAL (Influenza Virus) [SEQ ID NO: 257] | 2
14 | APSPYNSRF (Influenza Virus) [SEQ ID NO: 103] | 2
15 | FPNEVGARIL (Influenza Virus) [SEQ ID NO: 302] | 5
16 | APFSKDNSI (Influenza Virus) [SEQ ID NO: 102] | 1
17 | MPAHGPAKSM (Influenza Virus) [SEQ ID NO: 258] | 4
18 | SPGMMMGMF [SEQ ID NO: 256] | 1
19 | IPAEMLASI (Influenza Virus) [SEQ ID NO: 255] | 4
20 | APPEQSRMQF (Influenza Virus) [SEQ ID NO: 305] | 1
21 | SPQLEGFSA (Influenza Virus) [SEQ ID NO: 196] | 2
22 | LPFHNVHPL [SEQ ID NO: 67] | 5
23 | LPRRSGAAGA [SEQ ID NO: 132] | 2
24 | LPACVYGLAV (Influenza Virus) [SEQ ID NO: 133] | 4

test system: HLA-A1 supertype (A*101, A*2601, A*2902, A*3002); type: binding, human

Row | Sequence | # Alleles Bound
25 | IVAITDWSGY (Influenza Virus) [SEQ ID NO: 88] | 1
26 | MLANIDLKY [SEQ ID NO: 210] | 3
27 | GMQIRGFVY (Influenza Virus) [SEQ ID NO: 207] | 2
28 | KISPLMVAY (Influenza Virus) [SEQ ID NO: 266] | 2
29 | KMARLGKGY (Influenza Virus) [SEQ ID NO: 209] | 1
30 | WSQDPTMLY (Influenza Virus) [SEQ ID NO: 270] | 4
31 | NMDRAVKLY (Influenza Virus) [SEQ ID NO: 68] | 3
32 | LTIGECPKY (Influenza Virus) [SEQ ID NO: 62] | 3
33 | MLASIDLKY [SEQ ID NO: 211] | 4
34 | ITQFESLKLY (Influenza Virus) [SEQ ID NO: 153] | 1
35 | RVSKMGVDEY (Influenza Virus) [SEQ ID NO: 267] | 1
36 | TFEFTSFFY [SEQ ID NO: 212] | 3
37 | GMIDGWYGY (Influenza Virus) [SEQ ID NO: 63] | 2
38 | KSCINRCFY (Influenza Virus) [SEQ ID NO: 89] | 1
39 | YSHGTGTGY (Influenza Virus) [SEQ ID NO: 206] | 4
40 | STVHYPKVY (Influenza Virus) [SEQ ID NO: 265] | 2
41 | VTRREVHIY [SEQ ID NO: 165] | 1
42 | ASQGTKRSY (Influenza Virus) [SEQ ID NO: 110] | 1
43 | RMFLAMITY (Influenza Virus) [SEQ ID NO: 208] | 2
44 | HIASMRRNY (Influenza Virus) [SEQ ID NO: 168] | 1
45 | TIASVPAPRY (Influenza Virus) [SEQ ID NO: 140] | 2
46 | GTVKDRSPY (Influenza Virus) [SEQ ID NO: 86] | 2
47 | QWSQEPTMLY (Influenza Virus) [SEQ ID NO: 269] | 2
48 | SSLENFRAY (Influenza Virus) [SEQ ID NO: 166] | 1
49 | LVSDGGPNLY (Influenza Virus) [SEQ ID NO: 213] | 3
50 | VSFDQNLDY (Influenza Virus) [SEQ ID NO: 87] | 2
51 | VSHCRATEY (Influenza Virus) [SEQ ID NO: 169] | 1
52 | KSCLPACVY [SEQ ID NO: 113] | 2
53 | GTEKLTITY [SEQ ID NO: 268] | 1
54 | YVDGFEPNGY (Influenza Virus) [SEQ ID NO: 167] | 2

test system: HLA-B44 supertype (B*1801, B*4001, B*4002, B*4403, B*4501); type: binding, human

Row | Sequence | # Alleles Bound
55 | SETLQRFAW (Influenza Virus) [SEQ ID NO: 152] | 3
56 | FERATIMAAF (Influenza Virus) [SEQ ID NO: 139] | 5
57 | SEFNKACELT (Influenza Virus) [SEQ ID NO: 200] | 5
58 | LEEMSRDWLM (Influenza Virus) [SEQ ID NO: 149] | 4
59 | AESRKLLLIV (Influenza Virus) [SEQ ID NO: 204] | 3
60 | YEAIEECLI (Influenza Virus) [SEQ ID NO: 205] | 4
61 | CEKLEQSGL [SEQ ID NO: 262] | 4
62 | KEDKRYGPAL (Influenza Virus) [SEQ ID NO: 309] | 6
63 | FEMIWDPNG (Influenza Virus) [SEQ ID NO: 109] | 3
64 | WEKYCVLEI (Influenza Virus) [SEQ ID NO: 202] | 5
65 | LETLILLRAF (Influenza Virus) [SEQ ID NO: 150] | 4
66 | AESRKLLLI [SEQ ID NO: 203] | 4
67 | GEETIEERF (Influenza Virus) [SEQ ID NO: 198] | 5
68 | EECSCYPDY (Influenza Virus) [SEQ ID NO: 107] | 3
69 | IESVNNAVV (Influenza Virus) [SEQ ID NO: 264] | 6
70 | SEQAAEAMEV [SEQ ID NO: 78] | 6
71 | MEFSLTDPRL (Influenza Virus) [SEQ ID NO: 201] | 6

test system: HLA-A24 supertype (A*2301, A*2402, A*2902, A*3002); type: binding, human

Row | Sequence | # Alleles Bound
72 | EYIMKGVYI (Influenza Virus) [SEQ ID NO: 192] | 2
73 | FFLTQGALL (Influenza Virus) [SEQ ID NO: 98] | 3
74 | CFMYSDFHF (Influenza Virus) [SEQ ID NO: 190] | 3
75 | WMMAMKYPI [SEQ ID NO: 295] | 2
76 | LWILDRLFF (Influenza Virus) [SEQ ID NO: 84] | 3
77 | LYASPQLEGF (Influenza Virus) [SEQ ID NO: 194] | 2
78 | SYLIRALTL [SEQ ID NO: 244] | 2
79 | KFEEIRWLI (Influenza Virus) [SEQ ID NO: 158] | 2
80 | WWTSNSIIVF (Influenza Virus) [SEQ ID NO: 99] | 2
81 | FFENKSETW (Influenza Virus) [SEQ ID NO: 193] | 2
82 | FMQALQLLF (Influenza Virus) [SEQ ID NO: 159] | 3
83 | VFVIREPFI (Influenza Virus) [SEQ ID NO: 97] | 2
84 | HMMIWHSNL (Influenza Virus) [SEQ ID NO: 129] | 3
85 | SWPDGANIPF (Influenza Virus) [SEQ ID NO: 100] | 2
86 | EWLKTRPIL (Influenza Virus) [SEQ ID NO: 75] | 2
87 | FYIQMCTEL [SEQ ID NO: 128] | 2
88 | KFAAICTHL (Influenza Virus) [SEQ ID NO: 189] | 2
89 | LYNKMEFEPF (Influenza Virus) [SEQ ID NO: 297] | 2
90 | MYQKCCTLF (Influenza Virus) [SEQ ID NO: 251] | 3
91 | WMACHSAAF [SEQ ID NO: 131] | 2
92 | SWPDGANINF (Influenza Virus) [SEQ ID NO: 101] | 2
93 | MFLAMITYI [SEQ ID NO: 245] | 2
94 | FYRYGFVANF (Influenza Virus) [SEQ ID NO: 248] | 2
95 | IFLARSALI (Influenza Virus) [SEQ ID NO: 130] | 2
96 | HYPKVYKTYF (Influenza Virus) [SEQ ID NO: 296] | 2
97 | IYRRFKYGL (Influenza Virus) [SEQ ID NO: 85] | 2
98 | MYQKCCNLF (Influenza Virus) [SEQ ID NO: 250] | 2
99 | SYINRTGTF [SEQ ID NO: 247] | 3
100 | RYTKTTYWW (Influenza Virus) [SEQ ID NO: 246] | 2

From patent publication US8865182B2 (priority 2009, dated 2014)
